{"source": "patent US20140309295A1", "about": "“ANTIEPILEPTIC, HYPOCHOLESTEROLEMIC AND NEUROPROTECTIVE COMPOUND” (NEURON BIOPHARMA, S.A., priority 2009, published 2014)", "key": {"zebrafish embryo": {"test_system": "zebrafish embryo", "assay": "Biosafety in zebrafish embryo (OECD C15, semi-static, 9 days)", "type": "in vivo, Danio rerio", "description": "The fertilized eggs were obtained by natural mating of the zebrafish (Danio rerio, AB strain). A total of 8-10 pairs were used for each cross and a total of 200-250 eggs were generated on average per pair.\nTo assure exposure in the earliest stages of development, the eggs were quickly transferred (a minimum of 50 per condition) to another Petri dish with solutions of the compounds to be tested. […] Each experiment was performed in triplicate.\nThe studies were conducted in a total of 9 days post-fertilization, in which the treatment was renewed every day, thus conducting a semi-static assay.\nThe results at the end of the experiment allowed collecting the percentage of healthy larvae which reach the end of the experiment, defined as the number of live larvae and without symptoms of external physiopathological anomalies (morphological and/or behavioral), this being a parameter determining the biosafety of a substance under study and is complementary to the survival rates and to the LD50.\nThe anomalies recorded in the study are described below: • Intracranial thrombosis: a clot inside the blood vessel, in this case of any cerebral vessel. • Cardiac thrombosis: occurs in a cardiac vessel. • Cardiac edema (or hydrops): accumulation of fluid in the intercellular tissue space and also in the cavities of the organism. In the case of the heart, it causes the accumulation of fluid in the pericardial sac. • Malformation: a noticeable difference in the shape of the body or part of the body, or organ of the body (internal or external) compared with the average shape of the part in question.\nThe cardiac rhythm of the zebrafish embryos-larva was determined by means of visual analysis in stereomicroscopy, determining the heartbeat with the aid of a manual counter for a period of one minute."}, "seladin-1/DHCR24 gene": {"test_system": "seladin-1/DHCR24 gene", "assay": "seladin-1/DHCR24 gene expression in brain of wild-type mice", "type": "in vivo", "conditions": "50 mg/kg oral, 4 hours, male C57BL6 mice", "description": "A control group received only the vehicle, which consisted of 0.25% carboxy methylcellulose in physiological saline. 4 hours after the oral administrations, the animals were sacrificed under gas anesthesia with isoflurane and the brains, previously perfused with PBS, were removed and immediately afterwards frozen in liquid nitrogen. Subsequently, the total RNA of the brain was extracted by means of the High Pure RNA Isolation kit (Roche) and the amount and quality of the RNA were analyzed by means of spectrophotometry (Infinite 200 with NanoQuant, Tecan) and viewing of the 18S and 28S bands by means of electrophoresis. The RT-PCR was performed by means of two steps, first, the mRNA was changed to cDNA using the RNA to cDNA kit (Applied Biosystem) and the gene expression was subsequently analyzed by means of TagMan probes using the validated probes Mn00519071_m1 for seladin-1/DHCR24 and Hs99999901_s1 for 18S (used to normalize the results) in the 7500 Fast Real-Time PCR System equipment (Applied Biosystem). The relative amount of the gene expression was determined by using the ΔΔCt method with the SDS v2.1.1 software (Applied Biosystem); the expression of 18S was used to normalize the measurement."}, "[1]": {"test_system": "human neuroblastoma SK-N-MC cells", "assay": "Protection against neuronal death induced by endoplasmic reticulum stress (tunicamycin), WST-1", "type": "cell-based", "conditions": "40 μM NST0037; 24 μM tunicamycin", "description": "(§1) The assay was performed on human neuroblastoma SK-N-MC cells in culture from the American Type Culture Collection (ATCC), in all cases strict rules of sterility were followed and the manipulation was performed in class II biological safety cabinets following European standard EN 12469. The cells were maintained in the following culture medium: Minimum Essential Medium Eagle (MEM) supplemented with 1 mM sodium pyruvate, 2 mM L-glutamine, 0.1 mM non-essential amino acids, 0.05 mg/ml gentamicin and 10% fetal bovine serum.\nThe inhibition caused by compound NST0037 of cell death caused by treatment with tunicamycin generating reticular stress was analyzed. Tunicamycin is an inhibitor of protein N-glycosylation, causing abnormal protein folding in the endoplasmic reticulum, therefore said proteins are accumulated and cause stress, resulting in cell death. These cells, not exceeding 15 passages, were seeded on 96-well plates treated for adherent cells with a cell concentration of 5×10^4 cells/well; 3 wells of the plate were seeded for each condition of the assay. […]\nThe cells were incubated (at 37° C. and 5% CO2) with these treatments for 22 hours, after which time WST-1 reagent (Roche) was added. […] The formazan that is formed can be detected colorimetrically since it has an absorbance of 440 nm. The reading was taken in a plate reader at 440 nm 2 hours after adding the reagent."}, "[2]": {"test_system": "human neuroblastoma SK-N-MC cells", "assay": "Inhibition of camptothecin-induced apoptosis by flow cytometry (sub-G1)", "type": "cell-based", "conditions": "50 μM camptothecin", "description": "as §1\nThe inhibition caused by compound NST0037 against apoptosis (programmed cell death) caused by treatment with camptothecin which inhibits the enzyme Topoisomerase I, which prevents DNA duplication and triggers apoptotic cell death, was analyzed. These cells, not exceeding 15 passages, were seeded on 6-well plates treated for adherent cells with a cell concentration of 8×10^5 cells/well and 7×10^5 cells/well for the assay with pretreatment; 2 wells of the plate were seeded for each condition of the assay.\nAfter 24 hours of cell incubation at 37° C. and 5% CO2, the cell treatments were performed with 2 ml of total volume for the following conditions: • Control: culture medium (medium) • Camptothecin: medium plus camptothecin 50 μM. • Camptothecin plus Z-VAD-fmk: medium plus 50 μM camptothecin plus 50 μM Z-VAD-fmk, as positive inhibition control. • Camptothecin plus NST0037: medium plus 50 μM camptothecin plus NST0037 at 10, 40 or 100 μM.\nIn the assay with pretreatment, the cells were previously treated with 40 μM of NST0037, 100 μM of mevalonate or both together for 24 hours and then they were treated with 50 μM camptothecin, the rest of the procedure was similar to the assay without pretreatment.\nThe cells were incubated (at 37° C. and 5% CO2) with these treatments for 6 hours, after which time they were collected along with their culture medium and centrifuged at 300×g for 5 minutes. The medium was removed, a washing was performed with PBS and the cells were fixed for 2 minutes with 500 μl of 70% ethanol at −20° C. Once fixed, they were centrifuged at 400×g for 5 minutes, washed with PBS and 0.05 mg/ml propidium iodide, diluted in cycling buffer (0.1% sodium citrate, 0.3% Nonidet P-40 and 0.02 mg/ml RNase) were added and they were incubated for 1 hour at 37° C. After this time they were analyzed by flow cytometry, comparing the fluorescence of propidium iodide against the amount of DNA. The percentage of apoptosis was measured on the sub-G1 region of each of the conditions."}}, "data": [{"smiles": "CCC(CC)C(=O)O[C@H]1C[C@@H](C)C=C2C=C[C@H](C)[C@H](CC[C@@H]3C[C@@H](O)CC(=O)O3)[C@H]21", "note": "[NST0037, (1S,2S,6R,8S,8aR)-1,2,6,7,8,8a-hexahydro-3,7-dimethyl-8-[2-[(2R,4R)-tetrahydro-4-hydroxy-6-oxo-2H-pyran-2-yl]ethyl]-1-naphthalenyl-2-ethyl-butyrate]", "values": [{"measurement": "percentage of larvae with malformations or anomalous appearance", "setting": "zebrafish embryo; 0.2 mg/L", "result": "did not show significant toxicological effects"}, {"measurement": "percentage of healthy larvae at the end of the experiment", "setting": "zebrafish embryo; 0.06 and 0.2 mg/L, 9 days", "result": "more healthy larvae reaching the end of the experiment"}, {"measurement": "LD50", "setting": "zebrafish embryo; first days post-treatment (up to day 2)", "result": "above the maximum dose evaluated"}, {"measurement": "survival rate of embryos-larvae", "setting": "zebrafish embryo; high dose (2 mg/L, FIG. 24)", "result": "caused the mortality of all the embryos of the assay"}, {"measurement": "reduction of the cardiac rhythm vs controls", "setting": "zebrafish embryo; increasing doses up to 2 mg/L, 72 hours post-treatment", "result": "statistically significant only at the dose of 2 mg/L"}, {"measurement": "survival rate of embryos-larvae vs controls", "setting": "zebrafish embryo; lower dose (FIG. 25: NST0037 0.2 mg/L)", "result": "did not cause a statistically significant reduction of the survival rate"}, {"measurement": "seladin-1/DHCR24 gene expression in brain", "setting": "seladin-1/DHCR24 gene", "result": "increased the gene expression"}, {"measurement": "protection against death caused by Tm", "setting": "[1]", "result": 55, "unit": "%"}, {"measurement": "maximum protection (inhibition of apoptosis caused by camptothecin)", "setting": "[2]; 40 and 100 μM NST0037, 6 h, no pretreatment", "result": 18, "unit": "%"}, {"measurement": "percentage of protection (inhibition of apoptosis) with pretreatment", "setting": "[2]; 24 h pretreatment with 40 μM NST0037", "result": "up to 45%"}]}]}
